Laboratory results: patent US10329284B2, “Ester prodrugs of gamma-lactams and their use” (ALLERGAN, INC., priority 2014, dated 2019)

Experiment: Aqueous stability upon storage in aqueous solution, evaluated by HPLC
Format: physicochemical
Procedure: The compound of Formula (IIIa):
[drawing 31] was selected as an exemplary compound for evaluation of aqueous stability. In particular, the aqueous stability of the compound of Formula (Ma) upon storage in aqueous solution at several temperatures for several weeks was evaluated by HPLC using the following conditions: Column: BioWidePore C18 (SUPELCO), 4.6 mm×25 cm, 5 μm Mobile Phase A: 0.1% (V/V) trifluoroacetic acid (TFA) in di-water, 0.8 micron filtered Mobile Phase B: 100% acetonitrile, 0.8 micron filtered Column temp: Ambient Injection volume: 30 μL UV Detection: 214 nm Flow: 1.0 mL/min Run time: 25 minutes Sample diluent: 50% acetonitrile in di-water Gradient condition: See Table 1

SMILES	% Recovery vs. T0 (storage 25° C., T0) [%]	% Recovery vs. T0 (storage 25° C., Week-1) [%]	% Recovery vs. T0 (storage 25° C., Week-2) [%]	% Recovery vs. T0 (storage 25° C., Week-4) [%]	% Recovery vs. T0 (storage 40° C., T0) [%]	% Recovery vs. T0 (storage 40° C., Week-1) [%]	% Recovery vs. T0 (storage 40° C., Week-2) [%]	% Recovery vs. T0 (storage 40° C., Week-4) [%]	% Recovery vs. T0 (storage 60° C., T0) [%]	% Recovery vs. T0 (storage 60° C., Week-1) [%]	% Recovery vs. T0 (storage 60° C., Week-2) [%]	% Recovery vs. T0 (storage 60° C., Week-4) [%]
CCCCC[C@H](O)c1ccc(N2C(=O)CC[C@@H]2CCCc2ccc(C(=O)OC[C@@H](O)CO)s2)cc1 [Formula (IIIa), (S)-2,3-dihydroxypropyl 5-(3-((S)-1-(4-((S)-1-hydroxyhexyl)phenyl)-5-oxopyrrolidin-2-yl)propyl)thiophene-2-carboxylate]	100.0	100.8	100.4	102.6	100.0	100.6	99.8	101.8	100.0	99.0	97.4	96.3
O=C(OC[C@@H](O)CO)c1ccc(CCC[C@@H]2[C@@H](CCc3cc(Cl)cc(Cl)c3)[C@H](O)C[C@H]2Cl)s1 [Standard]	100.0	100.1	101.0	101.6	100.0	100.1	100.1	98.6	100.0	99.3	97.5	95.6
